Where two headings read alike, the source gives them in different places. Marks after values point to notes of the source that are not given here.
What was measured:
Crj: CD(SD)IGS rats [1] = conditions: male, rat, in vivo, 3 days
Procedure: (§1) The following 10 kinds of commercially available drugs were examined as the test compounds for a potential of inducing PLsis by histopathological examination and peripheral blood lymphocyte testing.
(§2) The following experiments were performed using the prematurely autopsied animals.
(§3) The high-dose dosing suspension was diluted about 3 fold and 10 fold with dispersant/solvent to prepare intermediate- and low-dose dosing suspensions. […] [For LD50, the Summary Basis of Approval (FDA) for each drug was referenced to.]
(§4) The animals were examined for mortality, general conditions, body weight, food consumption and the like using PM4800 (Mettler) and EB3200D (Shimadzu Corporation).
Hematological examination was performed for parameters such as RBC count, hematocrit, hemoglobin concentration, mean corpuscular hemoglobin (MCH), mean corpuscular hemoglobin concentration (MCHC), mean corpuscular volume (MCV), platelet count, WBC count, reticulocyte count, differential WBC, and vacuolated lymphocyte ratio (for PLsis-inducing compounds only) using ADVIA120 (Bayer Medical Ltd.) and E-4000 (Sysmex Corporation).

Crj: CD(SD)IGS rats [2] = conditions: rat, in vivo
Procedure: as §1, §2, §3, §4

Crj: CD(SD)IGS rats [3] = conditions: rat, gavage once daily for 3 days; printed on the line of the lowest dose, dose group unclear
Procedure: Each test drug was administered by gavage at a dosing liquid volume of 10 mL/kg/day once daily for 3 days (4 days for the negative control). The animals were examined for mortality, general conditions, body weight, food consumption and the like using PM4800 (Mettler) and EB3200D (Shimadzu Corporation).

[4] = in vivo; cited from earlier work
Crj: CD(SD)IGS rats [5] = assay: Urinary PAG/hippuric acid ratio by 1H NMR in rats; conditions: rat urine, 3 days, mean n = 3-4
Procedure: During the urine pooling, the collecting vessels were kept in an ice-cooled condition. After the urine collection, the urine was centrifuged at 1500×g for 10 minutes, and not less than 1 mL of the supernatant was collected and stored under freezing (below −70° C.) in a microtube in an ultralow-temperature freezer until the measurement. For the negative control group, 24-hour pooled urine was collected under ice cooling; after the urine collection, the urine was stored at −30° C. until the measurement.

With `CN(C)CCCN1c2ccccc2CCc2ccc(Cl)cc21` [Clomipramine, clomipramine] the “Mean vacuolated lymphocyte ratio” value (Crj: CD(SD)IGS rats [1]; 100 mg/kg/day) was 2%, the “Mean vacuolated lymphocyte ratio” value (Crj: CD(SD)IGS rats [1]; 300 mg/kg/day) was 30% and the “Mean vacuolated lymphocyte ratio” value (Crj: CD(SD)IGS rats [1]; 1000 mg/kg/day) was 38%. The “Histopathological changes (PLsis): Liver” value (Crj: CD(SD)IGS rats [2]; 100 mg/kg/day) was “−”, the “Histopathological changes (PLsis): Lung” value (Crj: CD(SD)IGS rats [2]; 100 mg/kg/day) was “−” and the “Histopathological changes (PLsis): Lymph node” value (Crj: CD(SD)IGS rats [2]; 100 mg/kg/day) was “−”. The “Histopathological changes (PLsis): Others” value (Crj: CD(SD)IGS rats [2]; 100 mg/kg/day) was “−”, the “Histopathological changes (PLsis): Spleen” value (Crj: CD(SD)IGS rats [2]; 100 mg/kg/day) was “−” and the “Histopathological changes (PLsis): Liver” value (Crj: CD(SD)IGS rats [2]; 300 mg/kg/day) was “−”. The “Histopathological changes (PLsis): Lung” value (Crj: CD(SD)IGS rats [2]; 300 mg/kg/day) was “+”, the “Histopathological changes (PLsis): Lymph node” value (Crj: CD(SD)IGS rats [2]; 300 mg/kg/day) was “+” and the “Histopathological changes (PLsis): Others” value (Crj: CD(SD)IGS rats [2]; 300 mg/kg/day) was “−”. For the same compound, the “Histopathological changes (PLsis): Spleen” value (Crj: CD(SD)IGS rats [2]; 300 mg/kg/day) was “−”, the “Histopathological changes (PLsis): Liver” value (Crj: CD(SD)IGS rats [2]; 1000 mg/kg/day) was “+” and the “Histopathological changes (PLsis): Lung” value (Crj: CD(SD)IGS rats [2]; 1000 mg/kg/day) was “−”. The “Histopathological changes (PLsis): Lymph node” value (Crj: CD(SD)IGS rats [2]; 1000 mg/kg/day) was “+”, the “Histopathological changes (PLsis): Others” value (Crj: CD(SD)IGS rats [2]; 1000 mg/kg/day) was “Kidney” and the “Histopathological changes (PLsis): Spleen” value (Crj: CD(SD)IGS rats [2]; 1000 mg/kg/day) was “−”. The “death (note beside the dose)” value (Crj: CD(SD)IGS rats [3]) was “(death)”, the LD50 [4] was 914 mg/kg and the “PAG + hippuric acid/creatinine” value (Crj: CD(SD)IGS rats [5]; 100 mg/kg/day by gavage) was 1.42. For the same compound, the “PAG/PAG + hippuric acid” value (Crj: CD(SD)IGS rats [5]; 100 mg/kg/day by gavage) was 14.27%, the “PAG/creatinine (first term of PAG + hippuric acid)” value (Crj: CD(SD)IGS rats [5]; 100 mg/kg/day by gavage) was 0.20 and the PAG/hippuric acid (Crj: CD(SD)IGS rats [5]; 100 mg/kg/day by gavage) was 16.79%. For the same compound, the “hippuric acid/creatinine (second term of PAG + hippuric acid)” value (Crj: CD(SD)IGS rats [5]; 100 mg/kg/day by gavage) was 1.22, the “PAG + hippuric acid/creatinine” value (Crj: CD(SD)IGS rats [5]; 300 mg/kg/day by gavage) was 0.74* and the “PAG/PAG + hippuric acid” value (Crj: CD(SD)IGS rats [5]; 300 mg/kg/day by gavage) was 33.36* %. For the same compound, the “PAG/creatinine (first term of PAG + hippuric acid)” value (Crj: CD(SD)IGS rats [5]; 300 mg/kg/day by gavage) was 0.20, the PAG/hippuric acid (Crj: CD(SD)IGS rats [5]; 300 mg/kg/day by gavage) was 62.72* % and the “hippuric acid/creatinine (second term of PAG + hippuric acid)” value (Crj: CD(SD)IGS rats [5]; 300 mg/kg/day by gavage) was 0.52.
